Patent US9409908B2 (priority 2012, dated 2016)
Where a name gives a salt, the structure may show the parent alone.

What was measured:
[1] = molecular target: purified human Factor XIa (Homo sapiens (Human), UniProt P03951); experiment: biochemical; type: biochemical; conditions: read-out: Factor XIa Ki
[2] = molecular target: purified human plasma kallikrein (Homo sapiens (Human), UniProt P03952); experiment: biochemical; type: biochemical; conditions: read-out: Plasma Kallikrein Ki
Chain of purified human plasma kallikrein (P03952 whole entry, looked up): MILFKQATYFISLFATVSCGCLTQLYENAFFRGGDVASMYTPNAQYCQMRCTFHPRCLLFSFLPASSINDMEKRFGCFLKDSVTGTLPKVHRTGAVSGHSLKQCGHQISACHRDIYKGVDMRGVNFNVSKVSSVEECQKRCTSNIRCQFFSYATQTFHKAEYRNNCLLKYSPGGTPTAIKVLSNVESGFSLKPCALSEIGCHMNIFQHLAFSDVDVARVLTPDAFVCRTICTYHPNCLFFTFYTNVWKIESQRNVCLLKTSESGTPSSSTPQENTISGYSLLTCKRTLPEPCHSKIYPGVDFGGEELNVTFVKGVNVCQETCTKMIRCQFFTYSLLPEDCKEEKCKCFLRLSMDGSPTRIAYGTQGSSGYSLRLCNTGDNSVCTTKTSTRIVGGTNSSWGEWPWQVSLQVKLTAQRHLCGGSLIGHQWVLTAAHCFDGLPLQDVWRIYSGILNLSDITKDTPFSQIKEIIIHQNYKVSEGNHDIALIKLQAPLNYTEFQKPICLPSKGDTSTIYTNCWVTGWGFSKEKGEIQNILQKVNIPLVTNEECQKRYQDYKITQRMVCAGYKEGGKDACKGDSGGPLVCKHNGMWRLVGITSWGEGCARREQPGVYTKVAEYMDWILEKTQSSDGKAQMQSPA
Chain of purified human plasma kallikrein (P03952 whole entry partner, looked up): as the sequence (P03952 whole entry, looked up) above

Chain of purified human Factor XIa (P03951 whole entry, looked up): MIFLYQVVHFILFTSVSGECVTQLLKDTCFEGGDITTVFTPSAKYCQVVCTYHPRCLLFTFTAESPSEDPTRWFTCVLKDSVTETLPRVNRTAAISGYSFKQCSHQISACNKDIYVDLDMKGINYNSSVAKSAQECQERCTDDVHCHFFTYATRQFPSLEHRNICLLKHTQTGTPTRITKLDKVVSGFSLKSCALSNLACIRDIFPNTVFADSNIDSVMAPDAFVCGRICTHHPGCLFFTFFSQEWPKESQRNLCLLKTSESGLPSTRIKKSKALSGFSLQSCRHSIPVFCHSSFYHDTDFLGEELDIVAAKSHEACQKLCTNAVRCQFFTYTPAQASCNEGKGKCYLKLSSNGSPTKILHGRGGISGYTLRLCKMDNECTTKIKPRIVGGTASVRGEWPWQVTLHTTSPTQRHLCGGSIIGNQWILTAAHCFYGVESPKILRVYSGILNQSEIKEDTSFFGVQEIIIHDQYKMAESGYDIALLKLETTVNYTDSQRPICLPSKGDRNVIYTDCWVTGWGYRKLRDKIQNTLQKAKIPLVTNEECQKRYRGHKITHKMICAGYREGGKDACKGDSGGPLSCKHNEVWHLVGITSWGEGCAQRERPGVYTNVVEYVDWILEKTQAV
Chain of purified human Factor XIa (P03951 whole entry partner, looked up): as the sequence (P03951 whole entry, looked up) above

Row | Compound | Ki [1] [nM] | Ki [2] [nM]
1 | C[C@@H]1CCC[C@H](N2CCC(c3c(F)ccc(Cl)c3F)=CC2=O)c2cc(ccn2)-c2cc(Br)c(N)cc2NC1=O [Example 193, (10R,14S)-5-amino-4-bromo-14-[4-(3-chloro-2,6-difluorophenyl)-6-oxo-1,2,3,6-tetrahydropyridin-1-yl]-10-methyl-8,16-diazatricyclo[13.3.1.0^2,7]nonadeca-1(19),2(7),3,5,15,17-hexaen-9-one, 2 TFA salt] | 1.02 | 3.91
2 | C[C@@H]1CCC[C@H](N2CCC(c3c(F)ccc(Cl)c3F)=CC2=O)c2cc(ccn2)-c2ccc(Nc3cccnc3)cc2NC1=O [Example 195, (10R,14S)-14-[4-(3-chloro-2,6-difluorophenyl)-6-oxo-1,2,3,6-tetrahydropyridin-1-yl]-10-methyl-5-[(pyridin-3-yl)amino]-8,16-diazatricyclo[13.3.1.0^2,7]nonadeca-1(19),2(7),3,5,15,17-hexaen-9-one, 3 TFA salt] | 0.47 | 2.96
3 | C[C@@H]1CCC[C@H](N2CCC(c3c(F)ccc(Cl)c3F)=CC2=O)c2cc(ccn2)-c2ccc(Nc3cccnn3)cc2NC1=O [Example 196, (10R,14S)-14-[4-(3-chloro-2,6-difluorophenyl)-6-oxo-1,2,3,6-tetrahydropyridin-1-yl]-10-methyl-5-[(pyridazin-3-yl)amino]-8,16-diazatricyclo[13.3.1.0^2,7]nonadeca-1(19),2(7),3,5,15,17-hexaen-9-one, 2 TFA salt] | 0.8 | 1.52
4 | C[C@@H]1CCC[C@H](N2CCC(c3c(F)ccc(Cl)c3F)=CC2=O)c2cc(ccn2)-c2cc(C(=O)O)c(N)cc2NC1=O [Example 198, (10R,14S)-5-amino-14-[4-(3-chloro-2,6-difluorophenyl)-6-oxo-1,2,3,6-tetrahydropyridin-1-yl]-10-methyl-9-oxo-8,16-diazatricyclo[13.3.1.0^2,7]nonadeca-1(19),2,4,6,15,17-hexaene-4-carboxylic acid, 2 TFA salt] | < 0.05 | 1
5 | C[C@@H]1CCC[C@H](N2CCC(c3c(F)ccc(Cl)c3F)=CC2=O)c2cc(ccn2)-c2cc3c(O)cc(=O)[nH]c3cc2NC1=O [Example 199, (14R,18S)-18-[4-(3-chloro-2,6-difluorophenyl)-6-oxo-1,2,3,6-tetrahydropyridin-1-yl]-5-hydroxy-14-methyl-8,12,20-triazatetracyclo[17.3.1.0^2,11.0^4,9]tricosa-1(23),2,4(9),5,10,19,21-heptaene-7,13-dione, TFA salt] | < 0.05 | 1.79
6 | C[C@@H]1CCC[C@H](n2ccc(-c3c(F)ccc(Cl)c3F)cc2=O)c2cc(ccn2)-c2c(F)cccc2NC1=O [Example 200, (10R,14S)-14-[4-(3-chloro-2,6-difluorophenyl)-2-oxo-1,2-dihydropyridin-1-yl]-3-fluoro-10-methyl-8,16-diazatricyclo[13.3.1.0^2,7]nonadeca-1(19),2(7),3,5,15,17-hexaen-9-one, TFA salt] | 18.1 | 28.7
7 | C[C@@H]1CCC[C@H](N2CCC(c3c(F)ccc(Cl)c3F)=CC2=O)c2cc(ccn2)-c2c(F)cc(F)cc2NC1=O [Example 201, (10R,14S)-14-[4-(3-chloro-2,6-difluorophenyl)-6-oxo-1,2,3,6-tetrahydropyridin-1-yl]-3,5-difluoro-10-methyl-8,16-diazatricyclo[13.3.1.0^2,7]nonadeca-1(19),2(7),3,5,15,17-hexaen-9-one, TFA salt] | 50 | 105
8 | C[C@@H]1CCC[C@H](N2CCC(c3c(Br)ccc(Cl)c3F)=CC2=O)c2cc(ccn2)-c2c(F)cc(F)cc2NC1=O [Example 202, (10R,14S)-14-[4-(6-bromo-3-chloro-2-fluorophenyl)-6-oxo-1,2,3,6-tetrahydropyridin-1-yl]-3,5-difluoro-10-methyl-8,16-diazatricyclo[13.3.1.0^2,7]nonadeca-1(19),2(7),3,5,15,17-hexaen-9-one] | 8.56 | 30.1
9 | C[C@@H]1CCC[C@H](N2CCC(c3c(F)ccc(Cl)c3F)=CC2=O)c2cc(ccn2)-c2c(ccc(F)c2F)NC1=O [Example 203, (10R,14S)-14-[4-(3-chloro-2,6-difluorophenyl)-6-oxo-1,2,3,6-tetrahydropyridin-1-yl]-3,4-difluoro-10-methyl-8,16-diazatricyclo[13.3.1.0^2,7]nonadeca-1(19),2(7),3,5,15,17-hexaen-9-one, TFA salt] | 19.4 | 44
10 | C[C@@H]1CCC[C@H](N2CCC(c3c(Br)ccc(Cl)c3F)=CC2=O)c2cc(ccn2)-c2c(ccc(F)c2F)NC1=O [Example 204, (10R,14S)-14-[4-(6-bromo-3-chloro-2-fluorophenyl)-6-oxo-1,2,3,6-tetrahydropyridin-1-yl]-3,4-difluoro-10-methyl-8,16-diazatricyclo[13.3.1.0^2,7]nonadeca-1(19),2(7),3,5,15,17-hexaen-9-one, TFA salt] | 4.46 | 16
11 | C[C@@H]1CCC[C@H](N2CCC(c3c(F)ccc(Cl)c3F)=CC2=O)c2cc(ccn2)-c2cc(F)c(F)cc2NC1=O [Example 205, (10R,14S)-14-[4-(3-chloro-2,6-difluorophenyl)-6-oxo-1,2,3,6-tetrahydropyridin-1-yl]-4,5-difluoro-10-methyl-8,16-diazatricyclo[13.3.1.0^2,7]nonadeca-1(19),2(7),3,5,15,17-hexaen-9-one, TFA salt] | 69.2 | 88.4
12 | C[C@@H]1CCC[C@H](N2CCC(c3c(Br)ccc(Cl)c3F)=CC2=O)c2cc(ccn2)-c2cc(F)c(F)cc2NC1=O [Example 206, (10R,14S)-14-[4-(6-bromo-3-chloro-2-fluorophenyl)-6-oxo-1,2,3,6-tetrahydropyridin-1-yl]-4,5-difluoro-10-methyl-8,16-diazatricyclo[13.3.1.0^2,7]nonadeca-1(19),2(7),3,5,15,17-hexaen-9-one, TFA salt] | 11.8 | 27.5
13 | C[C@@H]1CCC[C@H](N2CCC(c3c(C#N)ccc(Cl)c3F)=CC2=O)c2cc(ccn2)-c2c(F)cc(F)cc2NC1=O [Example 207, 4-chloro-2-{1-[(10R,14S)-3,5-difluoro-10-methyl-9-oxo-8,16-diazatricyclo[13.3.1.0^2,7]nonadeca-1(19),2(7),3,5,15,17-hexaen-14-yl]-6-oxo-1,2,3,6-tetrahydropyridin-4-yl}-3-fluorobenzonitrile, TFA salt] | 2.75 | 5.8
14 | C[C@@H]1CCC[C@H](N2CCC(c3c(C#N)ccc(Cl)c3F)=CC2=O)c2cc(ccn2)-c2c(ccc(F)c2F)NC1=O [Example 208, 4-chloro-2-{1-[(10R,14S)-3,4-difluoro-10-methyl-9-oxo-8,16-diazatricyclo[13.3.1.0^2,7]nonadeca-1(19),2(7),3,5,15,17-hexaen-14-yl]-6-oxo-1,2,3,6-tetrahydropyridin-4-yl}-3-fluorobenzonitrile, TFA salt] | 1 | 3.1
15 | C[C@@H]1CCC[C@H](N2CCC(c3c(C#N)ccc(C#N)c3F)=CC2=O)c2cc(ccn2)-c2c(ccc(F)c2F)NC1=O [Example 209, 2-{1-[(10R,14S)-3,4-difluoro-10-methyl-9-oxo-8,16-diazatricyclo[13.3.1.0^2,7]nonadeca-1(19),2(7),3,5,15,17-hexaen-14-yl]-6-oxo-1,2,3,6-tetrahydropyridin-4-yl}-3-fluorobenzene-1,4-dicarbonitrile, TFA salt] | 120 | 457
16 | C[C@@H]1CCC[C@H](N2CCC(c3c(C#N)ccc(C#N)c3F)=CC2=O)c2cc(ccn2)-c2cc(F)c(F)cc2NC1=O [Example 210, 2-{1-[(10R,14S)-4,5-difluoro-10-methyl-9-oxo-8,16-diazatricyclo[13.3.1.0^2,7]nonadeca-1(19),2(7),3,5,15,17-hexaen-14-yl]-6-oxo-1,2,3,6-tetrahydropyridin-4-yl}-3-fluorobenzene-1,4-dicarbonitrile, TFA salt] | 477 | 1200
17 | C[C@@H]1CCC[C@H](N2CCC(c3c(C#N)ccc(Cl)c3F)=CC2=O)c2cc(ccn2)-c2cc(F)c(F)cc2NC1=O [Example 211, 4-chloro-2-{1-[(10R,14S)-4,5-difluoro-10-methyl-9-oxo-8,16-diazatricyclo[13.3.1.0^2,7]nonadeca-1(19),2(7),3,5,15,17-hexaen-14-yl]-6-oxo-1,2,3,6-tetrahydropyridin-4-yl}-3-fluorobenzonitrile, TFA salt] | 3.26 | 6.46
18 | C[C@@H]1CCC[C@H](n2ccc(-c3cccc(Cl)c3F)cc2=O)c2cc(ccn2)-c2c(F)cc(F)cc2NC1=O [Example 212, (10R,14S)-14-[4-(3-chloro-2-fluorophenyl)-2-oxo-1,2-dihydropyridin-1-yl]-3,5-difluoro-10-methyl-8,16-diazatricyclo[13.3.1.0^2,7]nonadeca-1(19),2(7),3,5,15,17-hexaen-9-one, TFA salt] | 111 | 286
19 | COC(=O)c1cccc2c1-c1ccnc(c1)[C@@H](N1CCC(c3c(F)ccc(Cl)c3F)=CC1=O)CCC[C@@H](C)C(=O)N2 [Example 213, Methyl (10R,14S)-14-[4-(3-chloro-2,6-difluorophenyl)-6-oxo-1,2,3,6-tetrahydropyridin-1-yl]-10-methyl-9-oxo-8,16-diazatricyclo[13.3.1.0^2,7]nonadeca-1(19),2(7),3,5,15,17-hexaene-3-carboxylate, TFA salt] | > 413 | 3370
20 | C[C@@H]1CCC[C@H](N2CCC(c3c(F)ccc(Cl)c3F)=CC2=O)c2cc(ccn2)-c2c(cccc2C(=O)O)NC1=O [Example 214, (10R,14S)-14-[4-(3-chloro-2,6-difluorophenyl)-6-oxo-1,2,3,6-tetrahydropyridin-1-yl]-10-methyl-9-oxo-8,16-diazatricyclo[13.3.1.0^2,7]nonadeca-1(19),2(7),3,5,15,17-hexaene-3-carboxylic acid, TFA salt] | > 423 | > 13000
